Activity calls are given as the source filed them.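 Rule for the calls: active = fitted curve reaches 40% activation at a concentration no higher than the top valid tested dose; inconclusive = flat fit between 30% and 70% activation, or poor fit; inactive = uptake decrease, flat fit within 30% of zero, the rest.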
What follows are molecules tested against Scavenger receptor class B member 1 (Mus musculus) (UniProt Q61009) (assay: activators of SR-BI-mediated HDL uptake, dose response, cell-based, ldlA[mSR-BI] CHO, DiI fluorescence, cherry-pick (AID 602191;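 note: cell fluorescence from internalized DiI-labeled HDL after washing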;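 for AC40: potency of activators raising HDL uptake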;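 for activation (HDL uptake increase): 0% = median of DMSO wells and 100% = twice the DMSO signal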)). Settings: ldlA[mSR-BI] CHO cells, 3 h.
Sequence of Scavenger receptor class B member 1 (Mus musculus) (Q61009 whole entry, looked up): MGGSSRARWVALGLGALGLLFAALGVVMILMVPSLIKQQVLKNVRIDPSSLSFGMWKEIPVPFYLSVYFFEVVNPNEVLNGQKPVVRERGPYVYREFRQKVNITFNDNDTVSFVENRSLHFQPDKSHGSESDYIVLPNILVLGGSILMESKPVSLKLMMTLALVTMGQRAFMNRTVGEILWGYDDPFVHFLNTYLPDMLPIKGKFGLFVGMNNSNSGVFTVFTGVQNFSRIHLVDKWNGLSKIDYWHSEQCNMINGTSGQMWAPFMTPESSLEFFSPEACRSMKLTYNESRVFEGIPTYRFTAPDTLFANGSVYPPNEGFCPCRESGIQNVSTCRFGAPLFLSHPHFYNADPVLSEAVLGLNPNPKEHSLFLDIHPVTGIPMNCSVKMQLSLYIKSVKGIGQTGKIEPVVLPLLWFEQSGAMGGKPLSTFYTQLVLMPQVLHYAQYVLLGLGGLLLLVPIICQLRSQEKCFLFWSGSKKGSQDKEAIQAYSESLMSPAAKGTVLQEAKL
In the case of `CCOc1ccc(CN2CCNC(=O)C2CC(=O)NCC2CCOCC2)cc1` (stereo not drawn), the AC40 is reported as > 35 µM (inactive).
For `COc1ccc2sc(-c3ccccc3OC)c(-c3ccc(OCCN4CCCC4)cc3)c2c1`, the AC40 was > 35 µM (inactive).
With `O=C(C[C@H]1C[C@H](C(=O)N2CCCCC2)[C@@]2(CCc3ccccc3)c3[nH]c4ccc(Cl)cc4c3CCN2C1=O)NCCc1ccccn1` the AC40 was > 35 µM (inactive).
`NCCCC[C@H]1CNC(=O)C(=O)N1CCc1cccc(F)c1` was tested, and the AC40 was > 35 µM (inactive).
For `CN(C)C(=O)CCc1ccc2c3c([nH]c2c1)[C@]1(CCC2CCCC2)[C@@H](C(=O)N2CCOCC2)C[C@H](CC(=O)NCC24CC5CC(CC(C5)C2)C4)C(=O)N1CC3`, the AC40 was > 35 µM (inactive).

Same assay, conditions: ldlA[mSR-BI] CHO cells, 3 h, at 35 µM (top of the series)
For `COC(=O)C1=C(c2ccc(F)cc2OCc2ccccc2)C[C@@H]2CC[C@H]1N2C(=O)N1CCC(O)CC1`, the activation (HDL uptake increase) was -7.61% (inactive).
For `Cc1cccc(CCNS(=O)(=O)c2ccc3c(c2)NC(=O)CO3)c1`, the activation (HDL uptake increase) was 11.6% (inactive).
With `CC(=O)NC1(C2CCCCC2=O)CCCCC1` (stereo not drawn) the activation (HDL uptake increase) was -3.84% (inactive).
With `Cc1ccc(C(=O)NCCc2cccs2)cc1` the activation (HDL uptake increase) was 1.64% (inactive).
In the case of `CNC[C@H]1Oc2c(NS(=O)(=O)c3ccc(OC)cc3)cccc2C(=O)N([C@H](C)CO)C[C@H]1C`, the activation (HDL uptake increase) is reported as 9.97% (inactive).
With `Cc1ccccc1-c1nnc(SCC(=O)Nc2c(C)n(C)n(-c3ccccc3)c2=O)o1` the activation (HDL uptake increase) was -18.8% (inactive).
With `CN(C(=O)c1ccccc1Cl)c1ccccc1C(=O)NCc1ccccc1` the activation (HDL uptake increase) was -10.9% (inactive).
With `Nc1nc(SCC(=O)OCc2ccccc2)[nH]c(=O)c1NC(=O)c1ccco1` the activation (HDL uptake increase) was 4.16% (inactive).
With `COc1ccccc1C(=O)NCC(=O)NCc1cc(=O)n(C)c(=O)n1C` the activation (HDL uptake increase) was -3.18% (inactive).
In the case of `Cc1nc2c3ccccc3nc(NNC(=O)CCC(=O)N3CCN(c4ccccc4)CC3)n2n1`, the activation (HDL uptake increase) is reported as 6.41% (inactive).
`O=C(Cc1ccc(S(=O)(=O)N2CCOCC2)s1)OCc1ccc(Cl)cc1` was tested, and the activation (HDL uptake increase) was -16.7% (inactive).
For `Cc1ccc(C(c2nnnn2C2CCCCC2)N2CCN3CCCC3C2)cc1` (stereo not drawn), the activation (HDL uptake increase) was -9.01% (inactive).
With `COc1ccc(C(CNS(=O)(=O)c2ccc(NC(C)=O)c(OC)c2)N2CCCCC2)cc1` (stereo not drawn) the activation (HDL uptake increase) was 5.72% (inactive).
`O=C(Nc1cccc(S(=O)(=O)NC2=NCCC2)c1)c1ccc(F)cc1F` was tested, and the activation (HDL uptake increase) was -14.5% (inactive).
For `COc1ccccc1CN(C(=O)CCl)C(C(=O)NC1CCCCC1)c1ccncc1` (stereo not drawn), the activation (HDL uptake increase) was 3.52% (inactive).
With `COc1ccc(OC)c(NC(=O)c2c(NC(=O)CCC(=O)O)sc3c2CCCCC3)c1` the activation (HDL uptake increase) was -20.2% (inactive).
In the case of `C/C(=N\N1C(=O)c2ccccc2NC1c1ccco1)c1ccccc1O` (stereo not drawn), the activation (HDL uptake increase) is reported as -54.6% (inactive).
With `COc1ccc(CN(C(=O)c2cnccn2)C(C(=O)Nc2ccc(F)cc2)c2ccccc2)cc1` (stereo not drawn) the activation (HDL uptake increase) was -4.64% (inactive).
For `O=C1CCCC/C=C\C[C@H](CC(=O)N(CCO)Cc2ccccc2)C(=O)N2CCC[C@@H]2CO1`, the activation (HDL uptake increase) was -5.56% (inactive).
In the case of `CC(C)C[C@H]1CNC(=S)N1CC1CCCN1C[C@H](Cc1ccccc1)N1C[C@H](Cc2ccc(O)cc2)N(CC2CCCCC2)C1=S` (stereo partly drawn), the activation (HDL uptake increase) is reported as -0.934% (inactive).
For `CC(C)OC(=O)C1C(=O)CC(C)(O)C(C(=O)OC(C)C)C1c1cccc([N+](=O)[O-])c1` (stereo not drawn), the activation (HDL uptake increase) was -0.289% (inactive).
For `O=c1[nH]c(C2CCN(S(=O)(=O)c3ccc4c(c3)OCCO4)CC2)nc2c1nnn2Cc1ccc(F)cc1`, the activation (HDL uptake increase) was -4.95% (inactive).
For `O=C(NCc1ccccc1)C1=C[C@H](c2coc3ccccc3c2=O)C[C@H](OCc2ccc(CO)cc2)O1`, the activation (HDL uptake increase) was -1.3% (inactive).
`O=C(O)CCc1nnc(SCC(=O)Nc2ccc(Br)cc2)[nH]c1=O` was tested, and the activation (HDL uptake increase) was -2.46% (inactive).
In the case of `O=C(O)CN(Cc1ccco1)S(=O)(=O)c1ccc(F)cc1`, the activation (HDL uptake increase) is reported as -1.5% (inactive).
With `Cc1ccc(S(=O)(=O)NC(=O)COc2ccccc2C)c(C)c1` the activation (HDL uptake increase) was 11.3% (inactive).
For `COc1cccc(CN2CCNC(=O)C2CC(=O)NCCCn2ccnc2)c1` (stereo not drawn), the activation (HDL uptake increase) was 13% (inactive).
With `Cn1c(=O)[nH]c(=O)c2c1nc(N1CCN(c3ccccc3)CC1)n2CCSc1ncccn1` the activation (HDL uptake increase) was 2.78% (inactive).
With `CCOC(=O)N1CCC(N2C(=O)c3ccccc3C2Nc2cc(OC)c(OC)c(OC)c2)CC1` (stereo not drawn) the activation (HDL uptake increase) was 13% (inactive).
In the case of `CC(C)COC(=O)Cc1c(O)c2ccccc2[nH]c1=O`, the activation (HDL uptake increase) is reported as -2.53% (inactive).
With `O=C(CC(c1ccccc1)c1ccco1)Nc1nccs1` (stereo not drawn) the activation (HDL uptake increase) was 4.67% (inactive).
In the case of `COc1ccccc1-c1nc(SCC(=O)Nc2ccccc2F)n[nH]1`, the activation (HDL uptake increase) is reported as -24.3% (inactive).
`CC(=O)c1cccc(NC(=O)COC(=O)Cn2cnc3ccccc32)c1` was tested, and the activation (HDL uptake increase) was 12.6% (inactive).
In the case of `CN(C)S(=O)(=O)c1ccc(N2CCCC2)c(C(=O)NC2CCC(O)CC2)c1` (stereo not drawn), the activation (HDL uptake increase) is reported as -3.29% (inactive).
In the case of `O=C(NNC(=S)Nc1cccc2ccccc12)c1cccc(Br)c1`, the activation (HDL uptake increase) is reported as -30.7% (inactive).
`COc1ccc(N2C(=O)CCC(C(=O)N3CCOCC3)C2c2ccc(F)cc2)cc1` (stereo not drawn) was tested, and the activation (HDL uptake increase) was 5.04% (inactive).
For `O=C(CN1CCN(S(=O)(=O)c2ccc(F)cc2)CC1)Nc1ccc(F)cc1F`, the activation (HDL uptake increase) was 5.31% (inactive).
`O=C(CCCc1nc2ccccc2s1)NCc1ccccc1` was tested, and the activation (HDL uptake increase) was -3.71% (inactive).
`COc1ccc(/C(O)=C2/C(=O)C(=O)N(CCN3CCOCC3)C2c2ccccn2)cc1` (stereo not drawn) was tested, and the activation (HDL uptake increase) was -1.9% (inactive).
With `Cc1ccc(S(=O)(=O)N(c2cccc(C)c2)C2CCS(=O)(=O)C2)cc1` (stereo not drawn) the activation (HDL uptake increase) was -9.17% (inactive).
For `CCCNC(=O)c1onc(CSc2ccc(F)cc2)c1C(=O)NCCOC`, the activation (HDL uptake increase) was -11.4% (inactive).
In the case of `O=C(COC(=O)/C=C/c1cccc(Cl)c1)NCCc1ccc(Cl)cc1Cl`, the activation (HDL uptake increase) is reported as -1.95% (inactive).
`CC1CCCC(C)N1C(=O)COC(=O)CN1C(=O)c2ccccc2C1=O` (stereo not drawn) was tested, and the activation (HDL uptake increase) was -4.2% (inactive).
`O=C(CC1C[C@H](C(=O)N2CCOCC2)[C@@]2(CCC3CCCC3)c3[nH]c4ccccc4c3CCN2C1=O)NCc1cccc(C(F)(F)F)c1` (stereo partly drawn) was tested, and the activation (HDL uptake increase) was 25.1% (inactive).
In the case of `CCOC(=O)C1CCCN(S(=O)(=O)c2ccc(S(=O)(=O)N3CCCC3)cc2)C1` (stereo not drawn), the activation (HDL uptake increase) is reported as -3.5% (inactive).
In the case of `O=C(COC(=O)C1CCN(/C=C/C(=O)C(F)(F)F)CC1)Nc1cccc(F)c1`, the activation (HDL uptake increase) is reported as -7.38% (inactive).
With `O=C(c1ccc(CS(=O)Cc2ccccc2Cl)o1)N1CCN(c2ccccn2)CC1` (stereo not drawn) the activation (HDL uptake increase) was -16.3% (inactive).
`Cc1nc(C2CCCCC2)c(-c2ccccc2)c(N2CCOC2=O)c1C` was tested, and the activation (HDL uptake increase) was 1.15% (inactive).
For `Cc1ccc(S(=O)(=O)c2cc(OC(=O)c3ccco3)ccc2OC(=O)c2ccco2)cc1`, the activation (HDL uptake increase) was -6.59% (inactive).
With `O=C(N1CCN(S(=O)(=O)c2ccc(Cl)cc2)CC1)n1ccnc1` the activation (HDL uptake increase) was -2.88% (inactive).
For `CC(C)C(NC(=O)c1ccccc1F)C(=O)NCc1ccccc1` (stereo not drawn), the activation (HDL uptake increase) was 4.3% (inactive).
For `Cc1nn(-c2ccccc2)nc1CNC(=O)C(C)Cc1ccccc1` (stereo not drawn), the activation (HDL uptake increase) was -12.5% (inactive).
`CC(C)(C)SCCNC(=O)c1ccc(Cl)c([N+](=O)[O-])c1` was tested, and the activation (HDL uptake increase) was -10.4% (inactive).
In the case of `COc1cccc(/C=N/n2c(SC)nnc2-c2ccccc2)c1O`, the activation (HDL uptake increase) is reported as -1.1% (inactive).
With `CCc1ccc(C(=O)CN2C(=O)NC(C)(CCc3ccccc3)C2=O)cc1` (stereo not drawn) the activation (HDL uptake increase) was -8.25% (inactive).
In the case of `Cc1ccc(C(=O)N/C(=C/c2ccccc2)C(=O)NC(Cc2ccccc2)C(=O)O)cc1` (stereo not drawn), the activation (HDL uptake increase) is reported as 8.63% (inactive).
For `CN1CCN(CCC(=O)N2c3ccccc3Sc3ccc(Cl)cc32)CC1`, the activation (HDL uptake increase) was -3.2% (inactive).
With `CC(C)C(C)(C#N)NC(=O)CSc1nnc(C(F)(F)F)n1C` (stereo not drawn) the activation (HDL uptake increase) was -5.69% (inactive).
For `COc1ccc(N(CC(=O)NCCSc2ccccn2)S(=O)(=O)c2ccc(C)cc2)cc1OC`, the activation (HDL uptake increase) was -0.821% (inactive).
For `O=C(CCc1nc2ccccc2c(=O)[nH]1)N1CCN(c2ccccc2Cl)CC1`, the activation (HDL uptake increase) was -8.18% (inactive).
`CSCCC(NC(=O)c1ccco1)C(=O)NCc1ccc(F)cc1` (stereo not drawn) was tested, and the activation (HDL uptake increase) was -8.99% (inactive).
`COc1ccc(C(=O)NC(=O)CSc2nc3nc(C)cc(C)n3n2)cc1` was tested, and the activation (HDL uptake increase) was -8.5% (inactive).
`Cc1ccc(C(C(=O)NC2CCCC2)N(Cc2ccc(F)cc2)C(=O)c2csnn2)o1` (stereo not drawn) was tested, and the activation (HDL uptake increase) was 6.32% (inactive).
`CC(C)CC(CO)N1CCN(C(=O)c2cccc(C(F)(F)F)c2)CCC1=O` (stereo not drawn) was tested, and the activation (HDL uptake increase) was -7.8% (inactive).
With `CC(C)(C)n1nc2c(c1NC(=O)Cc1ccc(F)cc1)CS(=O)(=O)C2` the activation (HDL uptake increase) was 9.82% (inactive).
In the case of `O=C(CCN1C(=O)[C@@H]2Cc3ccccc3CN2C1=O)N[C@@H](C(=O)O)c1ccccc1`, the activation (HDL uptake increase) is reported as -2.01% (inactive).
With `O=C(CNC(=O)c1ccc(Cl)cc1)NCC(F)(F)F` the activation (HDL uptake increase) was -9.51% (inactive).
With `Cc1ccc(NC(=O)COC(=O)Cn2ccc(=O)[nH]c2=O)cc1C` the activation (HDL uptake increase) was -10.8% (inactive).
`O=C(NC(=S)N(Cc1ccccc1)Cc1ccccc1)c1ccccc1F` was tested, and the activation (HDL uptake increase) was -11.7% (inactive).
For `CCC(C)[C@@H](C(=O)NCC1CCC(C(=O)O)CC1)n1nnc2ccccc2c1=O` (stereo partly drawn), the activation (HDL uptake increase) was -5.54% (inactive).
For `N#C/C(=C/c1cn(-c2ccccc2)nc1-c1cccc(OCc2ccccc2)c1)C(=O)NCCCn1ccnc1`, the activation (HDL uptake increase) was 12.2% (inactive).
For `NNC(=O)CNC(c1ccccc1)c1cc(Br)ccc1NC(=O)CCN1CCOCC1` (stereo not drawn), the activation (HDL uptake increase) was -9.57% (inactive).
`O=S(=O)(NCCc1cn2ccccc2n1)c1ccc(-c2ccccc2)cc1` was tested, and the activation (HDL uptake increase) was -1.66% (inactive).
For `C=CCn1c(C(CCC(C)C)CC(C)(C)O)n[nH]c1=S` (stereo not drawn), the activation (HDL uptake increase) was 7.72% (inactive).
With `COc1ccc(-n2nc(C(=O)NCC(=O)O)c3ccccc3c2=O)cc1` the activation (HDL uptake increase) was 11.7% (inactive).
With `Cc1cccc(NC(=O)CCC(=O)OCc2ccc(Br)cc2)c1` the activation (HDL uptake increase) was -7.9% (inactive).
For `CCN1CCN(C(CNS(=O)(=O)c2ccc(Br)cc2)c2cccnc2)CC1` (stereo not drawn), the activation (HDL uptake increase) was -1.44% (inactive).
For `O=C(CNC(=O)c1ccc(Cl)cc1Cl)OCC(=O)N1CCCC1`, the activation (HDL uptake increase) was -11.8% (inactive).

From PubChem BioAssay AID602191 (Broad Institute, 2012)
